Consider 9 compounds from patent US20040132107A1, “Functional assay for g-protein-coupled receptors based on insect cells” (priority 2003, published 2004).

One assay has as its target T1, human 5-HT1A GPCR (Homo sapiens, UniProt P08908).
T1 sequence (P08908 1-422): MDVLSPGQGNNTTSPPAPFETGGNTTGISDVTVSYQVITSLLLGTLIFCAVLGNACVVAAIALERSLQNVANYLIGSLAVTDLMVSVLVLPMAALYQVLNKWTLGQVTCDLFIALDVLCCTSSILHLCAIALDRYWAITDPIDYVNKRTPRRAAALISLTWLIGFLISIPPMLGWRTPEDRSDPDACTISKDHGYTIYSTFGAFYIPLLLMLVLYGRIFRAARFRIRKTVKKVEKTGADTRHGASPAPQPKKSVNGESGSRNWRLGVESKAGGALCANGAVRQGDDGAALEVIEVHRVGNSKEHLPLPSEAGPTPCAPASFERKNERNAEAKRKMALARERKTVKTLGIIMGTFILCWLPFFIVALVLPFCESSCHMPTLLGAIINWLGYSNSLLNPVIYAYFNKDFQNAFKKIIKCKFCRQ
The settings on record: FIG. 16.

In the next assay the target is human Dopamine D1A GPCR (Homo sapiens, UniProt P21728). In words: DADR insect-based assay cell lines (Sf9; Dopamine D1A, Galpha16, aequorin), fractional luminescence.
Sequence of human Dopamine D1A GPCR (P21728 whole entry): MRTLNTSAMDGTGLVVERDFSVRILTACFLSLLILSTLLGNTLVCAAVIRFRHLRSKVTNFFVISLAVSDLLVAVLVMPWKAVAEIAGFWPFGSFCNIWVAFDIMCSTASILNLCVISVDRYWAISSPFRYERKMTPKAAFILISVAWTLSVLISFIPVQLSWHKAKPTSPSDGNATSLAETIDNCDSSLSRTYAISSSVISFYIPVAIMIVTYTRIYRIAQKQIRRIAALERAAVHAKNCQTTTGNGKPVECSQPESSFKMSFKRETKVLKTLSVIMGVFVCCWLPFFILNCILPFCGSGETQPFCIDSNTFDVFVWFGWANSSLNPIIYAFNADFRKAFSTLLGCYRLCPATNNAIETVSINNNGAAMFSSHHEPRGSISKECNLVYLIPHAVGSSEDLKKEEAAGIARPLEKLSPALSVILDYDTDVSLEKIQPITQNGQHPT
Assay [1] has as its target T2, human Thromboxane A2 GPCR (Homo sapiens, UniProt P21731).
T2 construct: expressed in transfected cells; host or cells: Sf9, transiently transfected
T2 sequence (P21731 1-343): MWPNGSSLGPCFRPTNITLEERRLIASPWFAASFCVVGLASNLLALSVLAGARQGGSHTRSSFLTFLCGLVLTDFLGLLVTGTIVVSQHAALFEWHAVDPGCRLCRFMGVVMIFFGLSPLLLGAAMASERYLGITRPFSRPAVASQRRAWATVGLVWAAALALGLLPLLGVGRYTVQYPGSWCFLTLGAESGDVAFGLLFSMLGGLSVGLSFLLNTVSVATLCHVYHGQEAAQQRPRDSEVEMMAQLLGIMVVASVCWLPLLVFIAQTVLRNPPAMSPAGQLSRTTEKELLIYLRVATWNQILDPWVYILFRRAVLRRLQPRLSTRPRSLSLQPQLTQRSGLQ
In words: TA2R insect-based assay cell lines (Sf9, transiently transfected), fractional luminescence. Here is the method: Light output was monitored for 70 seconds. […] Data analysis was performed as described above
Agonist and antagonist concentration-response curves were obtained by plotting graphs of A/(A+L) on the Y-axis versusLOG10 of ligand concentration (Molar) on the X-axis.Curve fitting was performed using the software package GraphPad Prism (GraphPad Software, Inc., San Diego, Calif., USA). The 3- or 4-Parameter Logistic equations were used for non-linear regression, and to acquire derived values (EC50 and Hill Slope).

Another assay has as its target T3, human Histamine H1 GPCR (Homo sapiens, UniProt P35367).
T3 construct: expressed in transfected cells; host or cells: Sf9, transiently transfected
In words: HH1R insect-based assay cell lines (Sf9, transiently transfected), fractional luminescence.

In assay [2] the target is human beta2 Adrenergic receptor (Homo sapiens, UniProt P07550). In words: B2AR insect-based assay cell lines (Sf9, transiently transfected), fractional luminescence. As to conditions: FIG. 17.
Sequence of human beta2 Adrenergic receptor (P07550 whole entry): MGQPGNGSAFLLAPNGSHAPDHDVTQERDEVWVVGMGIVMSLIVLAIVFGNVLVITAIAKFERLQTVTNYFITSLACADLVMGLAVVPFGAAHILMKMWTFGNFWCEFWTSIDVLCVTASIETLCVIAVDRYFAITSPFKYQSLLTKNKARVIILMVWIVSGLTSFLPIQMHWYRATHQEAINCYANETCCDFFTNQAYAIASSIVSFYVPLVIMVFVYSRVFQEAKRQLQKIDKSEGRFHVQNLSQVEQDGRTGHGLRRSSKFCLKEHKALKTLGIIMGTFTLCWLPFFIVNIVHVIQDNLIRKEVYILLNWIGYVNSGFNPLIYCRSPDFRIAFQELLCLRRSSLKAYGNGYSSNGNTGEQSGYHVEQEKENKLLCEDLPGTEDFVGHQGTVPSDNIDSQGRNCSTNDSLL
In a further assay the target is human 5-HT2A GPCR (Homo sapiens, UniProt P28223). In words: 5H2A insect-based assay cell lines (Sf9, transiently transfected), fractional luminescence. As to conditions: increasing concentrations of agonist; FIG. 14.
Sequence of human 5-HT2A GPCR (P28223 whole entry): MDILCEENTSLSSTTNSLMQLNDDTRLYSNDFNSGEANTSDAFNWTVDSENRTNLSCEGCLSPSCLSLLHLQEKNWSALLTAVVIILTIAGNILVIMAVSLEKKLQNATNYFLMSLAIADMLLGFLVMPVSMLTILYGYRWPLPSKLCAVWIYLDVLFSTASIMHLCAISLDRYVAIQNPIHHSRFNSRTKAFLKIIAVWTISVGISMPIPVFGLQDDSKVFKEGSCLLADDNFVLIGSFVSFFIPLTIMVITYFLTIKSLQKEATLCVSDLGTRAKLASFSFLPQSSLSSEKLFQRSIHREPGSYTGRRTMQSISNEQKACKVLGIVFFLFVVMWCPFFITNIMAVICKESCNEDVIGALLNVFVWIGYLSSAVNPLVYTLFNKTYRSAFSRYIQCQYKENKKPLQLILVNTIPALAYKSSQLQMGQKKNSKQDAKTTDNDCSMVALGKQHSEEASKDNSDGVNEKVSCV
Where [3] appears, read: 100 microM, cells expressing all three assay components.

T3 sequence (P35367 whole entry): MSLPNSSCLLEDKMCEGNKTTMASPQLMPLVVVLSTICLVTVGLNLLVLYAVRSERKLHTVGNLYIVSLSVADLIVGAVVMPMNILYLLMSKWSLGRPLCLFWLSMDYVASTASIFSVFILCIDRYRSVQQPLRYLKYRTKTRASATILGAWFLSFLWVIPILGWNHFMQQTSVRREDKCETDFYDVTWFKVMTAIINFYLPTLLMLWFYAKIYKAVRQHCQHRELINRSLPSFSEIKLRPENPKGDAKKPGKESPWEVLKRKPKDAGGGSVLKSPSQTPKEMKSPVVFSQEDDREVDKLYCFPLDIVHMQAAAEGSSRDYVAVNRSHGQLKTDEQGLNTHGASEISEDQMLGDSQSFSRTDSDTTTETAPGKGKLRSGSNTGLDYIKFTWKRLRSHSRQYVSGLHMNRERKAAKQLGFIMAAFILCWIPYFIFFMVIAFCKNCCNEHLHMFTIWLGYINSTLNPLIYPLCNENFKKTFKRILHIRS
Protocol for human Dopamine D1A GPCR: In one embodiment, the assay system of the invention was implemented using the human dopamine D1 (hDD1) GPCR, which is normally coupled to a Gs-type G protein.
To assay GPCR antagonists required a modified protocol. […] Light output was monitored for 75 seconds. […] Data analysis was performed as described above. An optional 10 second rocking step was added after each individual well was measured, to ensure that the insect-based assay cells arrayed in the plate stayed in suspension
Agonist and antagonist concentration-response curves were obtained by plotting graphs of A/(A+L) on the Y-axis versusLOG10 of ligand concentration (Molar) on the X-axis. Curve fitting was performed using the software package GraphPad Prism (GraphPad Software, Inc., San Diego, Calif., USA). The 3- or 4-Parameter Logistic equations were used for non-linear regression, and to acquire derived values (EC50 and Hill Slope).

As to `CC(C)NCC(O)COc1cccc2ccccc12` (racemic) [DL-propranalol], the “effect of antagonist pre-incubation on activation by serotonin” value at human 5-HT1A GPCR (antagonist 10 microM, then serotonin) was “prevents subsequent activation”.
As to `Oc1cc2c(cc1O)C(c1ccccc1)CNCC2` (stereo not shown) [SKF38393], the agonist concentration-activity curve entry on human Dopamine D1A GPCR (increasing concentrations of agonist, FIG. 5) was “characteristic sigmoidal agonist concentration-activity curve”.
As for `O=C(O)CCC/C=C\C[C@@H]1[C@H](CNNC(=O)Nc2ccccc2)[C@H]2CC[C@@H]1O2` [SQ29,548], the “block of U44069 agonist activity by pre-incubation with antagonist” value in assay [1] (FIG. 10) is given as “can be blocked”. Besides, the antagonist concentration-activity curve result in assay [1] (varying antagonist against fixed U44069 at 10 microM, FIG. 10) is “Characteristic sigmoidal antagonist concentration-activity curves”.
In the case of `CCCCC[C@H](O)/C=C/[C@H]1[C@@H]2CO[C@@H](C2)[C@@H]1C/C=C\CCCC(=O)O` [U44069], in assay [1] (increasing concentrations of agonist, FIG. 9), the agonist concentration-activity curve result was “characteristic sigmoidal agonist concentration-activity curve”.
Turning to `OCCN1CCN(CC/C=C2/c3ccccc3Sc3ccc(C(F)(F)F)cc32)CC1` [cis-Flupenthixol], on human Dopamine D1A GPCR (pre-incubation with antagonist, then dopamine, FIGS. 4 and 6), the “block of dopamine agonist activation by pre-incubation with antagonist” value is “can be blocked”. For the same compound, the antagonist concentration-activity curve entry at human Dopamine D1A GPCR (varying antagonist against fixed dopamine at 100 microM, FIG. 6) is reported as “Characteristic sigmoidal antagonist concentration-activity curves”.
On to `NCCc1c[nH]cn1` [histamine], for which, on human Histamine H1 GPCR, the agonist concentration-activity curve result is “characteristic sigmoidal agonist concentration-activity curve”; the “fractional response to histamine in the absence of Galpha16” value is listed as “reduced in the absence of Galpha16, it is still significant”; the “response in the absence of the Histamine H1 receptor” value was “no response”.
For `NC[C@H](O)c1ccc(O)c(O)c1` [nor-epinephrine], in assay [2] (setting [3]), the “response of assay cells to agonist” value is on record as “respond”. For the same compound, in assay [2] (cells without Galpha16), the “agonist response in the absence of Galpha16” value is given as “reduced in magnitude”.
On to `NCCc1c[nH]c2ccc(O)cc12` [serotonin], for which the agonist concentration-activity curve entry on human 5-HT2A GPCR is given as “characteristic sigmoidal agonist concentration-activity curve”. Further, the “response of assay cells to agonist” value at human 5-HT1A GPCR (setting [3]) is recorded as “respond”.
`Cc1ccc(/C(=C\CN2CCCC2)c2ccccn2)cc1.Cl` [triprolidone hydrochloride]: the “block of histamine agonist activity by pre-incubation with antagonist” value on human Histamine H1 GPCR (FIG. 12) is reported as “can be blocked”. Also, the antagonist concentration-activity curve entry on human Histamine H1 GPCR (varying antagonist against fixed histamine at 100 microM, FIG. 12) is recorded as “Characteristic sigmoidal antagonist concentration-activity curves”.
